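In this assay, cells in 96-well plates receive the compound at five concentrations for 48 hours. Endpoints are linearly interpolated between the surrounding concentrations. Here, GI50 denotes the concentration required for 50% inhibition of growth.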 Active and inactive are the calls of the source. Cut-off read from the data, not from the text of the source: active = GI50 up to about 1.1 µM and inactive = higher. Some results are limits rather than exact numbers.

Test systems include ACHN; DU-145; HCT-116; HCT-15; HOP-62; HOP-92; IGROV-1; MCF7; MDA-MB-231; Malme-3M; NCI-H460; NCI/ADR-RES; OVCAR-3; PC-3; SF-539; SK-MEL-2; SK-MEL-5; SK-OV-3; SNB-19.
What all share (assay): inhibition of tumour cell growth, NCI panel, 48 h

In the case of `O=C1C=C(NCCc2cc(Br)c(O)c(Br)c2)C(=O)c2[nH]cnc21`, the GI50 in the test on ACHN was 42.9 µM (inactive); in the test on DU-145 it was 36.7 µM (inactive); in the test with HCT-116, 7.35 µM (inactive); with HCT-15, 18 µM; with HOP-62 it was 38.6 µM (inactive); with HOP-92, 29.7 µM (inactive). In addition, the GI50 in the test on IGROV-1 is 17.6 µM (inactive); with MCF7, 22.9 µM (inactive); with MDA-MB-231 it was 29.4 µM (inactive); with Malme-3M, 15 µM (inactive); in the test on NCI-H460, 11.1 µM (inactive); with NCI/ADR-RES it was > 100 µM (inactive). The GI50 was 21.6 µM (inactive) in the test with OVCAR-3; 3.69 µM (inactive) in the test on PC-3; 22.4 µM (inactive) in the test on SF-539; 23.4 µM (inactive) in the test on SK-MEL-2; 15.6 µM (inactive) with SK-MEL-5; 41.2 µM (inactive) in the test on SK-OV-3. In addition, in the test on SNB-19, the GI50 is 36.1 µM (inactive).
Regarding `c1ccc(/C(=N/Nc2ccccn2)c2ncccn2)cc1`, the GI50 with ACHN was 0.112 µM (active); in the test on DU-145 it was 3.99 µM (inactive); with HCT-116, 0.524 µM (active); with HCT-15, 0.526 µM; with HOP-62, 3.31 µM (inactive); in the test on HOP-92 it was 2.96 µM (inactive). The GI50 with IGROV-1 was 2.07 µM (inactive); in the test with MCF7 it was 0.175 µM (active); with MDA-MB-231, 0.55 µM (active); in the test with Malme-3M, 0.538 µM (active); in the test on NCI-H460, 0.906 µM (active); with NCI/ADR-RES it was 1.43 µM (inactive). Also, the GI50 is 0.386 µM (active) in the test on OVCAR-3; 9.16 µM (inactive) in the test on PC-3; 3.52 µM (inactive) with SF-539; > 28 µM (inactive) in the test on SK-MEL-2; 0.745 µM (active) with SK-MEL-5; 2.3 µM (inactive) in the test on SK-OV-3. The GI50 in the test on SNB-19 was 4.26 µM (inactive).
Turning to `CC(C)OP(=O)(OC(C)C)/C(C#N)=C/c1c[nH]c2ccccc12`, the GI50 in the test with ACHN is 86.3 µM (inactive); in the test with DU-145, > 100 µM (inactive); in the test on HCT-116, > 100 µM (inactive); in the test with HCT-15 it was above 100 µM; in the test on HOP-62, > 100 µM (inactive); with HOP-92 it was 36.8 µM (inactive). Further, the GI50 with IGROV-1 is > 100 µM (inactive); with MCF7, 28.7 µM (inactive); in the test on MDA-MB-231, > 100 µM (inactive); in the test on Malme-3M, 86.3 µM (inactive); in the test with NCI-H460, > 100 µM (inactive); with NCI/ADR-RES, 21.7 µM (inactive). Further, the GI50 was 34 µM (inactive) with OVCAR-3; 67.6 µM (inactive) in the test with PC-3; > 100 µM (inactive) with SF-539; > 100 µM (inactive) with SK-MEL-2; 51.3 µM (inactive) in the test with SK-MEL-5; 92 µM (inactive) with SK-OV-3. Besides, the GI50 in the test with SNB-19 was > 100 µM (inactive).
As to `C[C@@H]1C[C@@H](O)[C@@]2(O)C13CC(=O)OC(C3)[C@@H](C)[C@@]2(C)CO` (some centres undefined), the GI50 in the test on ACHN is > 100 µM (inactive); in the test on DU-145, > 100 µM (inactive); in the test on HCT-116, > 100 µM (inactive); in the test on HCT-15, above 100 µM; in the test on HOP-62 it was > 100 µM (inactive); with HOP-92, > 100 µM (inactive). The GI50 with IGROV-1, in the test with MCF7, in the test with MDA-MB-231, with Malme-3M, with NCI-H460 and with NCI/ADR-RES was > 100 µM (inactive) in each case. For the same compound, the GI50 in the test on OVCAR-3, in the test on PC-3, with SF-539, in the test on SK-MEL-2, with SK-MEL-5 and in the test on SK-OV-3 was > 100 µM (inactive) each time. The GI50 with SNB-19 was > 100 µM (inactive).
`Cc1c(/N=C/C=C/c2ccccc2)c(=O)n(-c2ccccc2)n1C`: the GI50 was 29.8 µM (inactive) in the test with ACHN; 33.9 µM (inactive) in the test with DU-145; 13.7 µM (inactive) with HCT-116; 47 µM in the test with HCT-15; 33.3 µM (inactive) with HOP-62; 30.3 µM (inactive) in the test on HOP-92. The GI50 in the test with IGROV-1 is 33.7 µM (inactive); in the test with MCF7 it was 21.9 µM (inactive); in the test on MDA-MB-231, 34.8 µM (inactive); in the test with Malme-3M it was 25.4 µM (inactive); with NCI-H460, 87.5 µM (inactive); in the test with NCI/ADR-RES, 25.9 µM (inactive). Moreover, the GI50 with OVCAR-3 is 24.5 µM (inactive); in the test with PC-3, 33 µM (inactive); in the test on SF-539, 23 µM (inactive); in the test on SK-MEL-2, 88.7 µM (inactive); in the test with SK-MEL-5 it was 15.3 µM (inactive); with SK-OV-3, > 100 µM (inactive). The GI50 in the test on SNB-19 was 30.1 µM (inactive).
In the case of `C=C(Cl)c1c(OC)cccc1OCc1ccccc1`, the GI50 in the test on ACHN is 90.8 µM (inactive); in the test on DU-145 it was > 100 µM (inactive); in the test on HCT-116, 56.8 µM (inactive); with HCT-15, 92.7 µM; with HOP-62, > 100 µM (inactive); with HOP-92 it was 22.2 µM (inactive). For the same compound, the GI50 in the test with IGROV-1 was 57.5 µM (inactive); in the test with MCF7, 58.5 µM (inactive); in the test on MDA-MB-231, 64.7 µM (inactive); in the test with Malme-3M, > 100 µM (inactive); in the test with NCI-H460, > 100 µM (inactive); in the test on NCI/ADR-RES it was > 100 µM (inactive). Besides, the GI50 was > 100 µM (inactive) in the test with OVCAR-3; > 100 µM (inactive) with PC-3; > 100 µM (inactive) in the test on SF-539; > 100 µM (inactive) in the test on SK-MEL-2; 34.4 µM (inactive) in the test with SK-MEL-5; > 100 µM (inactive) with SK-OV-3. Further, the GI50 in the test on SNB-19 was > 100 µM (inactive).
`O=C(O)Cc1ccc(Oc2nc3ccccc3nc2-c2cccs2)cc1`: the GI50 in the test on ACHN is 56.6 µM (inactive); in the test with DU-145, 81.7 µM (inactive); with HCT-116 it was 54.6 µM (inactive); in the test on HCT-15 it was 35.3 µM; in the test with HOP-62, > 100 µM (inactive); with HOP-92, 34.3 µM (inactive). The GI50 in the test on IGROV-1 is 68.9 µM (inactive); in the test with MCF7, 38.5 µM (inactive); in the test on MDA-MB-231, > 100 µM (inactive); in the test on Malme-3M, > 100 µM (inactive); with NCI-H460, 50.7 µM (inactive); in the test on NCI/ADR-RES, 60.5 µM (inactive). For the same compound, the GI50 with OVCAR-3 was 48.4 µM (inactive); in the test on PC-3, 46.3 µM (inactive); with SF-539 it was 79.4 µM (inactive); in the test with SK-MEL-2 it was 84.1 µM (inactive); in the test with SK-MEL-5, 72.9 µM (inactive); in the test with SK-OV-3, > 100 µM (inactive). In the test with SNB-19, the GI50 was 82.8 µM (inactive).
In the case of `Oc1ccc(Cl)cc1/C=N/c1cnc2ccccc2c1`, the GI50 with ACHN is > 57.1 µM (inactive); in the test on DU-145, 41.5 µM (inactive); in the test with HCT-116 it was 11.3 µM (inactive); with HCT-15 it was 4.4 µM; in the test on HOP-62, 35.5 µM (inactive); in the test with HOP-92, 28.1 µM (inactive). Further, the GI50 with IGROV-1 is 16 µM (inactive); with MCF7 it was 22.6 µM (inactive); in the test with MDA-MB-231, 32.6 µM (inactive); in the test on Malme-3M, > 70.6 µM (inactive); in the test with NCI-H460 it was 33.7 µM (inactive); with NCI/ADR-RES, 27.7 µM (inactive). In addition, the GI50 in the test with OVCAR-3 is 14.5 µM (inactive); with PC-3, 14.3 µM (inactive); in the test on SF-539, 13.4 µM (inactive); with SK-MEL-2 it was 27.2 µM (inactive); in the test with SK-MEL-5, 27.5 µM (inactive); in the test with SK-OV-3 it was 33.3 µM (inactive). For the same compound, the GI50 in the test with SNB-19 was 29 µM (inactive).
As for `O=C(CCO)OCCCCCC/C=C\CCCCCC/C=C\CCCCCCCCOC(=O)CCO`, the GI50 in the test on ACHN is 23.9 µM (inactive); in the test with DU-145 it was 16.4 µM (inactive); in the test on HCT-116, 16.3 µM (inactive); in the test with HCT-15, 15.6 µM; in the test with HOP-62 it was 17.1 µM (inactive); with HOP-92, 18.2 µM (inactive). In addition, the GI50 in the test on IGROV-1 was 17.2 µM (inactive); with MCF7, 15.7 µM (inactive); in the test with MDA-MB-231, 18.5 µM (inactive); in the test on Malme-3M, 20.5 µM (inactive); in the test with NCI-H460, 17.3 µM (inactive); in the test with NCI/ADR-RES, 17.9 µM (inactive). For the same compound, the GI50 in the test on OVCAR-3 was 23 µM (inactive); with PC-3 it was 17.1 µM (inactive); with SF-539, > 100 µM (inactive); with SK-MEL-2 it was 17.3 µM (inactive); in the test on SK-MEL-5, > 100 µM (inactive); with SK-OV-3, 19.9 µM (inactive). In addition, in the test with SNB-19, the GI50 is 18.9 µM (inactive).
`CCOC(=O)[C@@]12C[C@](/C=C/OC)(O[Si](C)(C)C)[C@@]13c1cc(OC)c(OC)cc1CCN3C(=O)C2O` (some centres undefined): the GI50 in the test on ACHN was > 100 µM (inactive); with DU-145 it was > 100 µM (inactive); in the test with HCT-116, > 100 µM (inactive); in the test on HCT-15 it was above 100 µM; in the test with HOP-62, > 100 µM (inactive); with HOP-92, > 100 µM (inactive). Moreover, the GI50 in the test on IGROV-1, in the test on MCF7, in the test on MDA-MB-231, in the test on Malme-3M, in the test with NCI-H460 and in the test on NCI/ADR-RES was > 100 µM (inactive) in each case. In addition, the GI50 with OVCAR-3 is > 100 µM (inactive); in the test on PC-3, > 100 µM (inactive); with SF-539 it was > 100 µM (inactive); in the test with SK-MEL-2, > 100 µM (inactive); in the test with SK-MEL-5, 38.5 µM (inactive); with SK-OV-3 it was > 100 µM (inactive). In addition, the GI50 in the test on SNB-19 is > 100 µM (inactive).
Take `CCN(CC)CCN1C(=O)c2cccc3cc(N)cc(c23)C1=O`: the GI50 with ACHN is 4.94 µM (inactive); in the test with DU-145, 8.45 µM (inactive); with HCT-116, 4.16 µM (inactive); in the test with HCT-15, 5.43 µM; with HOP-62, 5.45 µM (inactive); in the test with HOP-92, 35.8 µM (inactive). Also, the GI50 is 7.59 µM (inactive) in the test on IGROV-1; 4.39 µM (inactive) in the test with MCF7; 16.9 µM (inactive) in the test on MDA-MB-231; 13 µM (inactive) in the test on Malme-3M; 3.98 µM (inactive) in the test with NCI-H460; 7.21 µM (inactive) in the test with NCI/ADR-RES. Besides, the GI50 with OVCAR-3 is 12.7 µM (inactive); in the test with PC-3, 16.1 µM (inactive); in the test on SF-539, 5.09 µM (inactive); in the test on SK-MEL-2, 18.9 µM (inactive); in the test with SK-MEL-5 it was 12.9 µM (inactive); with SK-OV-3 it was 8.53 µM (inactive). Moreover, the GI50 in the test with SNB-19 was 13.6 µM (inactive).

(Values after ChEMBL document CHEMBL1201862, “PubChem BioAssay data set” (2004).)
